{"source": "patent US9155791B2", "about": "“Metallation enhancements in tumor-imaging and PDT therapy” (Health Research, Inc., priority 2010, dated 2015)", "tested_on": "tumors", "assay": "Fluorescence tumor imaging dose versus PDT therapeutic dose (FIG. 4)", "format": "in vivo"}
{"compound": "CCCCCCOC(C)c1c(C)c2cc3nc(c4c5[nH]c(cc6nc(cc1[nH]2)C(C)=C6CC)c(C)c5C(=O)C4)C(CCC(=O)Nc1ccc(SC2=C(C=CC4=[N+](CCCCS(=O)(=O)[O-])c5ccc6ccccc6c5C4(C)C)CCCC2=CC=C2N(CCCCS(=O)(=O)[O-])c4ccc5ccccc5c4C2(C)C)cc1)C3C.[Na+]", "note": "(stereo not shown) [HPPH-CD]", "values": [{"measurement": "therapeutic dose relative to tumor-imaging dose (fold higher)", "value": "~10", "unit": "fold"}]}
